Several values for one entry are separate records, joined by “and”; a condition that tells them apart may be missing. Equal values may be shown once.
System: patients with PoPH
Test: PORTICO safety: treatment-emergent AEs, SAEs, AESIs, deaths, discontinuations
Format: in vivo
Text: For the evaluation of treatment-emergent safety endpoints in the DB phase, the observation period for each individual subject started at the time of the first administration of macitentan or placebo and ended with the start of OL treatment or 30 days after DB treatment discontinuation (whichever occurred first). The safety variables listed below apply to the DB treatment-emergent period and the macitentan treatment-emergent period. The DB treatment-emergent period was defined as the period from the DB treatment start date up to the EOT-DB+30 days or to the EOT-DB for patients entering OL. The macitentan treatment-emergent period was defined as the period from the first intake of macitentan up to end of macitentan treatment (EOMT)+30 days. EOMT was defined as EOT-DB (for patient who received macitentan only in the DB period) or EOT-OL when applicable. For patients entering OLE, the EOMT is EOT-OL. • Treatment-emergent AEs • Treatment-emergent deaths • Treatment-emergent serious adverse events (SAEs) • AEs leading to premature discontinuation of study treatment • Occurrence of post-baseline LFT (ALT and/or AST) abnormalities, classified as: • ≥3×ULN; • ≥5×ULN; • ≥8×ULN; • ≥3×ULN and <5×ULN; • […] and <8×ULN. • Occurrence of post-baseline ALT and/or AST abnormality 3×ULN and concomitant (i.e., at the same time) total bilirubin ≥2×ULN • Occurrence of post-baseline ALT and/or AST abnormality ≥3×ULN and concomitant (i.e., at the same time) total bilirubin ≥2×ULN and increased as compared to baseline • Occurrence of hemoglobin abnormalities, classified as: • ≤80 g/L, • >80 and ≤100 g/L, • decrease from baseline ≥20 g/L and <50 g/L, • decrease from baseline ≥50 g/L, • <100 g/L and concurrent (i.e., at the same time) decrease from baseline ≥20 g/L. • Other treatment-emergent marked laboratory abnormalities • Change from baseline/macitentan baseline to EOT-DB/EOMT in vital signs • Change from baseline/macitentan baseline to EOT-DB/EOMT in laboratory variables • Change from baseline/macitentan baseline to EOT-DB/EOMT in Child-Pugh classification • Change from baseline/macitentan baseline to EOT-DB/EOMT in MELD score
(i) Adverse events: All AEs occurring after study start (i.e., signing of informed consent) and up to 30 days after study treatment discontinuation were required to be recorded. AEs still ongoing more than 30 days after study treatment discontinuation were required to be followed up until they were no longer considered clinically relevant.
(ii) Serious adverse events, including associated with study design or protocol-mandated procedures: During the screening period, all SAEs occurring after study start (i.e., signing of informed consent) were required to be recorded (whether considered associated or not associated to study design or study-mandated procedures). All SAEs, regardless of investigator-attributed causal relationship, occurring during the treatment period up to the end of the 30-day follow up period, were required to be reported. SAEs still ongoing at the EOS visit were required to be followed up until resolution or stabilization, or until the event outcome was provided, e.g., death. New SAEs occurring after the 30-day follow-up period were required to be reported within 24 hours.
In addition, the following adverse events of special interest (AESIs) were analyzed: • “Edema and fluid retention”
Any treatment-emergent AE with PT listed in the Standardised MedDRA Query (SMQ) “Haemodynamic oedema, effusions and fluid overload (SMQ)” or with PT equal to “Pulmonary congestion” defined in the latest available MedDRA version, with the exception of PTs containing “site”. • “Anemia”

[1] = macitentan DB + OL phase, Macitentan treated set, N = 84
[2] = macitentan DB+OL phase, MTS N=84

CCCNS(=O)(=O)Nc1ncnc(OCCOc2ncc(Br)cn2)c1-c1ccc(Br)cc1 [macitentan, N-[5-(4-Bromophenyl)-6-[2-[(5-bromo-2-pyrimidinyl)oxy]ethoxy]-4-pyrimidinyl]-N′-propylsulfamide]
AEs of special interest Hepatic disorders, Blood bilirubin increased [1]: 1 (1.2) n (%)
AEs of special interest Hepatic disorders, Hepatocellular carcinoma [1]: 1 (1.2) n (%)
AEs of special interest Hepatic disorders, Jaundice [1]: 1 (1.2) n (%)
AEs of special interest Hepatic disorders, Liver function test abnormal [1]: 1 (1.2) n (%)
AEs of special interest Hepatic disorders, Liver function test increased [1]: 1 (1.2) n (%)
AEs of special interest Hepatic disorders, Portal hypertensive gastropathy [1]: 1 (1.2) n (%)
AEs of special interest Hepatic disorders, Portopulmonary hypertension [1]: 1 (1.2) n (%)
AEs of special interest Hepatic disorders, Subjects with atleast one AE [1]: 13 (15.5) n (%)
AEs of special interest Hepatic disorders, Total bile acids increased [1]: 2 (2.4) n (%)
AEs of special interest Hepatic disorders, Varices oesophageal [1]: 1 (1.2) n (%)
Subjects with at least one AE [1]: 74 (88.1) n (%)
Subjects with at least one SAE [1]: 25 (29.8) n(%)
Treatment-emergent AE, Abdominal pain [1]: 4 (4.8) n (%)
Treatment-emergent AE, Acute kidney injury [1]: 3 (3.6) n (%)
Treatment-emergent AE, Anaemia [1]: 12 (14.3) n (%)
Treatment-emergent AE, Arthralgia [1]: 3 (3.6) n (%)
Treatment-emergent AE, Ascites [1]: 4 (4.8) n (%)
Treatment-emergent AE, Asthenia [1]: 4 (4.8) n (%)
Treatment-emergent AE, Bronchitis [1]: 8 (9.5) n (%)
Treatment-emergent AE, Dizziness [1]: 7 (8.3) n (%)
Treatment-emergent AE, Dyspnoea [1]: 4 (4.8) n (%)
Treatment-emergent AE, Dyspnoea exertional [1]: 3 (3.6) n (%)
Treatment-emergent AE, Fall [1]: 3 (3.6) n (%)
Treatment-emergent AE, Haemoglobin decreased [1]: 6 (7.1) n (%)
Treatment-emergent AE, Headache [1]: 16 (19.0) n (%)
Treatment-emergent AE, Hepatic encephalopathy [1]: 4 (4.8) n (%)
Treatment-emergent AE, Hypokalaemia [1]: 3 (3.6) n (%)
Treatment-emergent AE, Hypotension [1]: 4 (4.8) n (%)
Treatment-emergent AE, Influenza like illness [1]: 3 (3.6) n (%)
Treatment-emergent AE, Iron deficiency anaemia [1]: 3 (3.6) n (%)
Treatment-emergent AE, Muscle spasms [1]: 3 (3.6) n (%)
Treatment-emergent AE, Nausea [1]: 4 (4.8) n (%)
Treatment-emergent AE, Oedema peripheral [1]: 23 (27.4) n (%)
Treatment-emergent AE, Pain in extremity [1]: 7 (8.3) n (%)
Treatment-emergent AE, Pruritus [1]: 3 (3.6) n (%)
Treatment-emergent AE, Pulmonary arterial hypertension [1]: 3 (3.6) n (%)
Treatment-emergent AE, Rash [1]: 3 (3.6) n (%)
Treatment-emergent AE, Rhinitis [1]: 5 (6.0) n (%)
Treatment-emergent AE, Right ventricular failure [1]: 6 (7.1) n (%)
Treatment-emergent AE, Urinary tract infection [1]: 3 (3.6) n (%)
Treatment-emergent AE, Viral upper respiratory tract infection [1]: 4 (4.8) n (%)
Treatment-emergent AE, Vomiting [1]: 3 (3.6) n (%)
Treatment-emergent SAE, Abdominal pain [1]: 1 (1.2) n(%)
Treatment-emergent SAE, Acute kidney injury [1]: 2 (2.4) n(%)
Treatment-emergent SAE, Alveolitis [1]: 1 (1.2) n(%)
Treatment-emergent SAE, Anaemia [1]: 2 (2.4) n(%)
Treatment-emergent SAE, Ascites [1]: 2 (2.4) n(%)
Treatment-emergent SAE, Asthma [1]: 1 (1.2) n(%)
Treatment-emergent SAE, Atrial fibrillation [1]: 1 (1.2) n(%)
Treatment-emergent SAE, Bronchitis [1]: 1 (1.2) n(%)
Treatment-emergent SAE, Chronic kidney disease [1]: 1 (1.2) n(%)
Treatment-emergent SAE, Fall [1]: 1 (1.2) n(%)
Treatment-emergent SAE, Fluid overload [1]: 1 (1.2) n(%)
Treatment-emergent SAE, Gastrointestinal haemorrhage [1]: 1 (1.2) n(%)
Treatment-emergent SAE, Haemoptysis [1]: 1 (1.2) n(%)
Treatment-emergent SAE, Hepatic encephalopathy [1]: 3 (3.6) n(%)
Treatment-emergent SAE, Hepatocellular carcinoma [1]: 1 (1.2) n(%)
Treatment-emergent SAE, Humerus fracture [1]: 1 (1.2) n(%)
Treatment-emergent SAE, Hypersensitivity [1]: 1 (1.2) n(%)
Treatment-emergent SAE, Ileus [1]: 1 (1.2) n(%)
Treatment-emergent SAE, Intervertebral disc protrusion [1]: 1 (1.2) n(%)
Treatment-emergent SAE, Iron deficiency anaemia [1]: 1 (1.2) n(%)
Treatment-emergent SAE, Left ventricular failure [1]: 1 (1.2) n(%)
Treatment-emergent SAE, Liver function test increased [1]: 1 (1.2) n(%)
Treatment-emergent SAE, Localised oedema [1]: 1 (1.2) n(%)
Treatment-emergent SAE, Lung infection [1]: 1 (1.2) n(%)
Treatment-emergent SAE, Malignant ascites [1]: 1 (1.2) n(%)
Treatment-emergent SAE, Melaena [1]: 2 (2.4) n(%)
Treatment-emergent SAE, Oedema peripheral [1]: 2 (2.4) n(%)
Treatment-emergent SAE, Osteitis [1]: 1 (1.2) n(%)
Treatment-emergent SAE, Pneumonia [1]: 1 (1.2) n(%)
Treatment-emergent SAE, Presyncope [1]: 1 (1.2) n(%)
Treatment-emergent SAE, Priapism [1]: 1 (1.2) n(%)
Treatment-emergent SAE, Pulmonary arterial hypertension [1]: 2 (2.4) n(%)
Treatment-emergent SAE, Pulmonary toxicity [1]: 1 (1.2) n(%)
Treatment-emergent SAE, Right ventricular failure [1]: 4 (4.8) n(%)
Treatment-emergent SAE, Staphylococcal infection [1]: 1 (1.2) n(%)
Treatment-emergent SAE, Subdural haematoma [1]: 1 (1.2) n(%)
Treatment-emergent SAE, Syncope [1]: 1 (1.2) n(%)
Treatment-emergent SAE, Thrombocytopenia [1]: 1 (1.2) n(%)
Treatment-emergent SAE, Tinnitus [1]: 1 (1.2) n(%)
Treatment-emergent SAE, Troponin I increased [1]: 1 (1.2) n(%)
Treatment-emergent SAE, Urosepsis [1]: 1 (1.2) n(%)
Anemia AEs reported as SAEs (macitentan DB+OL phase): 2 and 3
Patients who discontinued treatment due to AEs (macitentan DB+OL phase): 10 patients
Patients who had an SAE (macitentan DB+OL phase): 29.8%
Patients with edema and fluid retention AEs reported as serious (macitentan DB+OL phase): 2 patients
Patients with hepatic disorder AEs reported as SAEs (macitentan DB+OL phase): 5 patients
Peripheral edema leading to discontinuation of treatment (macitentan DB+OL phase): 2 patients
Patients with hepatic disorder AEs (macitentan DB+OL phase (13 patients)): 15.5%
Patients with anemia AEs (macitentan DB+OL phase (22 patients)): 26.2%
Patients with edema and fluid retention AEs (macitentan DB+OL phase (26 patients)): 31.0%
Decreased hemoglobin considered related to study treatment (macitentan DB+OL phase, 3 patients): 3.6%
Most frequent severe AEs (peripheral edema, right ventricular failure, acute kidney injury), each (macitentan DB+OL phase, 3 patients each): 3.6%
Anemia considered related to study treatment (macitentan DB+OL phase, 4 patients): 4.8%
Peripheral edema considered related to study treatment (macitentan DB+OL phase, 10 patients): 11.9%
Headache considered related to study treatment (macitentan DB+OL phase, 11 patients): 13.1%
Patients with AEs of severe intensity (macitentan DB+OL phase, 19 patients): 22.6%
Subjects with AE leading to study drug discontinuation [2]: 10 (11.9) n (%)
Subjects with Drug-Related AE [2]: 33 (39.3) n (%)
Subjects with Drug-Related serious AE [2]: 8 (9.5) n (%)
Subjects with Fatal serious AE [2]: 4 (4.8) n (%)
Subjects with Serious AE [2]: 25 (29.8) n (%)
Subjects with Severe AE [2]: 19 (22.6) n (%)
Subjects with at least one AE (macitentan DB+OL phase, Macitentan treated set N=84): 74 (88.1) n (%)
Overall safety and tolerability (patients with PoPH and mild or moderate liver impairment): good safety profile and is well tolerated

— patent US20220257595A1, “MACITENTAN FOR USE IN TREATING PORTOPULMONARY HYPERTENSION” (ACTELION PHARMACEUTICALS LTD, priority 2019, published 2022)
